Experiments:
CD34+ HSPCs [1] = assay: editing of CD34+ HSPCs with purified i53 variant proteins and HBB-UBC-GFP AAV donor; flow cytometry; format: cell-based, human; details: for increase in levels of GFP integration over control edited cells: HBB-UBC-GFP AAV MOI 2500
Description: (§1) Chemically-modified single guide RNAs (sgRNAs) used to edit CD34+ HSPCs at the HBB locus were purchased from Synthego. The sgRNA sequences were modified by adding 2′-O-methyl-3′-phosphorothioate at the three terminal nucleotides of the 5′ and 3′ ends. The target sequence for the HBB sgRNA is as follows: HBB: 5′[…]-3′ (SEQ ID NO: 74). Cas9 protein (SpyFi Cas9) was purchased from Aldevron. The RNPs were complexed at a Cas9:sgRNA molar ratio of 1:2.5 at 25° C. for 10-15 min prior to electroporation. Cells were collected, counted, and pelleted at 180 g×7 min. The cell pellets were resuspended in Maxcyte buffer with complexed RNPs and electroporated using a Maxcyte EXPERT ATx Nucleofector. After electroporation cells were plated at 3.5×10^5 cells/mL in media supplemented with cytokines and the desired AAV donor added at 5.0×10^2-2.5×10^4 vector genomes/cell. 24 h after nucleofection, cells were spun down, washed once with media, and seeded into AAV-free media at a density of 3.5×10^5 cells/mL.
(§2) CD34+ HPSCs were edited with protein variants 3 days post thaw and were harvested 2 days post nucleofection for NGS analysis or 3-5 days post nucleofection for GFP expression analysis. Editing reactions with proteins at a given concentration were repeated in duplicate or triplicate (either using the same CD34+ HSPC donor or across multiple donors).
Rates of targeted integration of the HBB UBC GFP donor were measured using a Beckman Coulter CytoFLEX. DAPI (Miltenyi Biotec) was used to discriminate live and dead cells. Flow cytometry data were analyzed using FlowJo 10 software.

[2] = system: HDR-mediated integration of a donor sequence; assay: i53 as protein-based additive, enhancement of HDR-mediated integration of a donor sequence (data not shown); format: cell-based; details: 1.5 mg/mL purified i53 in nucleofection solution, relatively inconsistent results
CD34+ HSPCs [3] = assay: editing at the off-target editing site OT-1 (NGS-based analysis); format: cell-based, human; details: protein 0.8 mg/mL
Source text: Editing outcomes at the off-target (OT) editing site OT-1 can be assessed using an assay very similar to the one described above for measuring the targeted integration of HBB-SNP. The off-target editing site was identified via three different methods (in silico prediction,^13 Circle-Seq,^14 and Guide-Seq^15) and was confirmed to be off-target editing site of significance via amplicon sequencing. The workflow for the OT-1 amplicon sequencing assay is very similar to the on-target sequencing assay but involves one less PCR step. A small 166 base pair sequence encompassing the OT-1 editing site is amplified directly from genomic DNA in the first PCR and then tagged with barcode and adapter sequences in a second PCR. The resulting PCR products are sized, quantified, and prepared for sequencing in the same manner as for the HBB on-target sequencing assay. The sequencing data is also processed using the Crispresso2 pipeline,^3 but in contrast to the on-target sequencing assay no homology direct repair outcomes are present at OT-1, only % WT and % INDELs are reported.

53BP1 Tudor domain = 53BP1 Tudor domain (Homo sapiens, UniProt Q12888); details: previously reported; mutants relative to i53; cited from earlier work
53BP1 = 53BP1 (Homo sapiens, UniProt Q12888); details: transiently expressed in cells; cited from earlier work
CD34+ HSPCs [4] = assay: editing of CD34+ HSPCs with purified i53 variant proteins and HBB-SNP AAV donor; NGS of editing outcomes; format: cell-based, human; details: for increase in levels of HDR corrected alleles over control edited cells: FIG. 13; for increase in levels of HDR corrected alleles over DM: L67R/L67H value is the average of both
Description: as §1, §2
24 h after nucleofection, cells were spun down, washed with media, and seeded into AAV and DNAPKi-free media at a density of 3.5×10^5 cells/mL.
The frequency of homology directed repair (HDR) and other editing outcomes at HBB were measured using Next Generation Sequencing (NGS). An NGS assay was developed to determine the frequency of at the HBB locus by quantifying the total number of alleles that have been either: (1) not edited (% WT), (2) changed by HDR to incorporate sequence differences present in the AAV repair template (% HR), or (3) mutated during the genome correction process resulting in a gene that produces mutant β-globin (% INDELs).
For this assay, genomic DNA was harvested from cells using a Quick-DNA 96 Plus Kit (Zymo Research). The DNA concentration was measured using a Qubit 1×dsDNA BR assay kit (ThermoFisher). Purified genomic DNA was then used to amplify the HBB locus via polymerase chain reaction (PCR). The PCR products were diluted using nuclease-free water to serve as the template DNA for targeted NGS library prep. A second PCR with primers carrying partial Illumina adapters was performed to amplify a 142 base pair sequence that includes the region of the HBB locus that is to be corrected during the genome correction process. The PCR products were diluted again to serve as templates in a third PCR reaction using Nextera XT index primers. This third PCR reaction was used to assign unique identifiers to each sample and to add the full length adapter sequences necessary for Illumina sequencing. The size of the PCR products was assessed on an Agilent BioAnalyzer. PCR products were then pooled, purified using a Qiagen PCR purification kit, and quantified using PicoGreen in order to ready the PCR products for sequencing.
Based on the PicoGreen concentration, the library of pooled PCR products was diluted to a final concentration of 4 nM. Sequencing was performed on a MiSeq system using an Illumina MiSeq sequencing reagent kit (V2, 300 cycles). A 10% PhiX control library was added to the sample library to improve sequence diversity and to allow for error rate measurements. The library was denatured and loaded at […] onto the sequencing reagent cartridge. The sequencing entails paired-end 150 base pair reads and dual indexing reads. The sequencing data was demultiplexed based on the sample indexes provided and FASTQ files for each sample are generated.
The FASTQ files were processed using the CRISPResso2 pipeline^3. The data was reported as % WT, % corrected by HR, and % INDELs. […]

53BP1 Tudor domain, sequence (Q12888 1484-1603 limits assumed): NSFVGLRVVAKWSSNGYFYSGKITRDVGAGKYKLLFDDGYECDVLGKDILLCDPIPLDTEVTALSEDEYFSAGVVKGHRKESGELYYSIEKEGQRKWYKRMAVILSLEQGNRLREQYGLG
53BP1, sequence (Q12888 whole entry): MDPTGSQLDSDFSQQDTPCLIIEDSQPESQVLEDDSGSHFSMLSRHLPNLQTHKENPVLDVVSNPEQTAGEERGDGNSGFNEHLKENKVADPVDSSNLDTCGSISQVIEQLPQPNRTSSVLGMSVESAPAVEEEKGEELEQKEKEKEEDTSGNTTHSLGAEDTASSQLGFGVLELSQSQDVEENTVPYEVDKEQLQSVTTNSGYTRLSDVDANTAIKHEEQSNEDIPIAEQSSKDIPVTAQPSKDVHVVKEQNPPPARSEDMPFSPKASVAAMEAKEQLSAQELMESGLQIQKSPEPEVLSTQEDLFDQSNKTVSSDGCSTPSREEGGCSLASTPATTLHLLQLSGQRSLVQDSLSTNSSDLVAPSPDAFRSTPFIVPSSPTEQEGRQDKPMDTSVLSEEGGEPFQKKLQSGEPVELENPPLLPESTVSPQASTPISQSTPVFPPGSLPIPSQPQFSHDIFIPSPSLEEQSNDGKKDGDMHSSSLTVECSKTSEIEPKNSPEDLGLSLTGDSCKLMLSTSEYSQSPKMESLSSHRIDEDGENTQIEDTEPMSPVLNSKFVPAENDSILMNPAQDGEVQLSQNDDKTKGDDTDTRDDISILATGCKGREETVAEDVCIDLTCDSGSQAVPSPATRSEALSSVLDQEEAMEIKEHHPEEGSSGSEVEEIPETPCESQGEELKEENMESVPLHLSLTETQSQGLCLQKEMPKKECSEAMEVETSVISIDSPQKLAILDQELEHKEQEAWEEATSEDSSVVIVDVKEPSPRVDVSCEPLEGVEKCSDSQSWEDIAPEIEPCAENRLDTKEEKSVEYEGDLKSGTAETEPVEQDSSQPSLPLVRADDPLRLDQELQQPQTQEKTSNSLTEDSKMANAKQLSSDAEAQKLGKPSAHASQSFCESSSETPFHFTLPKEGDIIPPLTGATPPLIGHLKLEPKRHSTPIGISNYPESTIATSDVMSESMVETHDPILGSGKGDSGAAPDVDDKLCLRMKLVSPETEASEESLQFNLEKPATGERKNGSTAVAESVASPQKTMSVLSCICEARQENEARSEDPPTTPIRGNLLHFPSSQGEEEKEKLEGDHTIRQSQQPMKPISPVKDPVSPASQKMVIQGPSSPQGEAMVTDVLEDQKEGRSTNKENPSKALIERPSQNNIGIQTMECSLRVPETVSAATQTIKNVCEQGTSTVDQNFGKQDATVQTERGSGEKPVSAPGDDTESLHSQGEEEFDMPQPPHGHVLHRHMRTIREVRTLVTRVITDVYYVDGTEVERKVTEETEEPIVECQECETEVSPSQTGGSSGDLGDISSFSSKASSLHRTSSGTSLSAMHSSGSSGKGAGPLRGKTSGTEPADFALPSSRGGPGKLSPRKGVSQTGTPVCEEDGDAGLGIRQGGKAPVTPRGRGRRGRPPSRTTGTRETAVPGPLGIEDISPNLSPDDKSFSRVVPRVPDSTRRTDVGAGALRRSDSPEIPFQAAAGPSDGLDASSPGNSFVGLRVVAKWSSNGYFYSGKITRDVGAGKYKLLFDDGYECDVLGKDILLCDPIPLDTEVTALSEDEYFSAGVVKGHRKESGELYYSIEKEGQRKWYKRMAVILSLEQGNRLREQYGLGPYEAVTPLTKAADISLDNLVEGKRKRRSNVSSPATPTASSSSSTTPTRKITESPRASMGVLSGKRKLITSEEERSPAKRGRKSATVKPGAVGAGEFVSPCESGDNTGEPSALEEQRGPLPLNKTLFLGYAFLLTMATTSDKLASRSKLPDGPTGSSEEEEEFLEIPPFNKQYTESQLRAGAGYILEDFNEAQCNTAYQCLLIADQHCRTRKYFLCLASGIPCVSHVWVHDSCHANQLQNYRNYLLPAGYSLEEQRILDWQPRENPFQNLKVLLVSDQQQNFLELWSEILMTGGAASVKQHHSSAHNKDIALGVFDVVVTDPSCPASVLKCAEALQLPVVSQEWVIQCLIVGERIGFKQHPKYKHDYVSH

With “i53: engineered ubiquitin variant, known inhibitor of 53BP1, selectively binds the Tudor domain of 53BP1 [reference compound]” the “increase of % HDR over DM” value (CD34+ HSPCs [1]; HBB-UBC-GFP AAV MOI 1250, protein 0.4 mg/mL, GFP integration in live cells, L67R/L67H value is the average of both) was 19%, the “increase in levels of GFP integration over control edited cells” value (shortened to “increase in levels of GFP integration”) (CD34+ HSPCs [1]; protein 0.1 mg/mL) was 5% and the “increase in levels of GFP integration” value (CD34+ HSPCs [1]; protein 0.2 mg/mL) was 18%. For the same substance, the “increase in levels of GFP integration” value (CD34+ HSPCs [1]; protein 0.4 mg/mL) was 29%, the “increase in levels of GFP integration” value (CD34+ HSPCs [1]; protein 0.8 mg/mL) was 45% and the “increases in HDR-mediated integration of a donor sequence” value [2] was 10-20%. The “frequency of INDELS at the off-target editing site OT-1” value (CD34+ HSPCs [3]) was “not significantly increase”, the “binding to the 53BP1 Tudor domain” value (53BP1 Tudor domain) was “selectively bind” and the “recruitment of 53BP1 to DSBs” value (53BP1) was “block recruitment of 53BP1 to DSBs”. The “increase in levels of HDR corrected alleles over control edited cells” value (CD34+ HSPCs [4]; MOI 312.5, protein 0.1 mg/mL) was 18%, the “increase in levels of HDR corrected alleles over control edited cells” value (CD34+ HSPCs [4]; MOI 312.5, protein 0.2 mg/mL) was 24% and the “increase in levels of HDR corrected alleles over control edited cells” value (CD34+ HSPCs [4]; MOI 312.5, protein 0.4 mg/mL) was 45%. The “increase in levels of HDR corrected alleles over control edited cells” value (CD34+ HSPCs [4]; MOI 2500, protein 0.1 mg/mL) was 3%, the “increase in levels of HDR corrected alleles over control edited cells” value (CD34+ HSPCs [4]; MOI 2500, protein 0.2 mg/mL) was 5% and the “increase in levels of HDR corrected alleles over control edited cells” value (CD34+ HSPCs [4]; MOI 2500, protein 0.4 mg/mL) was 18%. The “levels of HDR corrected alleles (normalized by total edited alleles), dose response” value (CD34+ HSPCs [4]; FIG. 26, protein 0.2, 0.4 and 0.8 mg/mL, MOIs 312.5 and 2500) was “decrease significantly as the protein concentrations decreased”, the “increase in levels of HDR corrected alleles over DM” value (CD34+ HSPCs [4]; HBB-SNP AAV MOI 312.5, protein 0.4 mg/mL) was 14% and the “increase in levels of HDR corrected alleles over DM” value (CD34+ HSPCs [4]; HBB-SNP AAV MOI 2500, protein 0.4 mg/mL) was 15%.
